Here are results for 13 compounds from patent US20240083904A1, “ANTAGONISTS OF THE ADENOSINE A2A RECEPTOR” (AdoRx Therapeutics Limited, priority 2020, published 2024).

The target in test [1] is human Adenosine A2b receptor (Homo sapiens (Human), UniProt P29275). Put plainly: Adenosine receptor TR-FRET binding assay (A2b). To be noted: CHO cell membranes, 30 nM CA200645, Ki from IC50 by Cheng and Prusoff. The procedure: (§1) All FRET binding experiments were conducted at room temperature in white 384-well plates, in assay binding buffer containing 1× LabMed (Cisbio, France), 100 μg/mL saponin, 1% DMSO and 0.02% pluronic acid. Binding of the fluorescently labelled Adenosine receptor antagonist XAC (CA200645, FRET acceptor) to terbium-labelled A1, A2a, A2b and A3 adenosine receptors (FRET donors) was detected by time-resolved FRET due to the close proximity of the donor and acceptor in a binding event. To investigate the ability of unlabelled test compounds to bind to Adenosine A1, A2a, A2b and A3 receptors, dose response curves were constructed that determined the ability of a range of concentrations to inhibit the binding of 30 nM CA200645 to the A2b receptor and 100 nM CA200645 to the A1, A2a, and A3 receptor.
Chain of human Adenosine A2b receptor (P29275 whole entry): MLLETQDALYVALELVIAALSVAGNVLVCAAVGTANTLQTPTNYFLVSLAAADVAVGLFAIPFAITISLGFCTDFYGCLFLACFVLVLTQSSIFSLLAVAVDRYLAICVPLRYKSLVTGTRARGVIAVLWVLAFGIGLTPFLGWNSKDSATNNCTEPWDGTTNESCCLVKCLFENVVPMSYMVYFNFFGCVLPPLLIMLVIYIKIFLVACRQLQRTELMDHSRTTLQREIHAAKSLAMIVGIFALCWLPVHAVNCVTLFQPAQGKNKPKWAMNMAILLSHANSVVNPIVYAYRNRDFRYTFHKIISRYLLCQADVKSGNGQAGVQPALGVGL
(§2) Serial dilution (1:3 dilutions) of test compounds in neat DMSO and transfer of a 400 nL sample of test compound into the assay plate was carried out using the Mosquito (TTP Labtech, UK). The compound samples were incubated for 2 hours at room temperature with a fixed concentration of CA200645 defined for each receptor (see above) and CHO cell membranes containing the human Adenosine A1 (0.5 μg/well), A2a (0.3 μg/well), A2b (1 μg/well) or A3 (1 μg/well) receptor in 40 μL of assay buffer. Total and non-specific binding of CA200645 was determined in the absence and presence of 10 μM XAC, respectively. Following 2 hours incubation, the level of CA200645 binding was detected on a Pherastar FSX (BMG Labtech, Germany) using standard TR-FRET settings. The terbium donor was excited with three laser flashes at a wavelength of 337 nm, and donor and acceptor emission was detected at 620 nm and 665 nm wavelengths, respectively. FRET ratios were obtained by multiplying the acceptor/donor ratio value by 10,000. Specific binding was determined by subtracting the non-specific binding FRET ratio from the total binding FRET ratio. Compound IC50 curves were analysed using GraphPad Prism 7.0 (GraphPad, USA) and Ki affinity values were determined from the obtained IC50 values using the method of Cheng and Prusoff.
Background: TR-FRET usually uses a lanthanide donor and a delayed reading to cut background.

Test [2] deals with human PBMCs. Description: CD3/CD28 stimulated IL-2 release NECA reversal assay in human PBMCs. In kind it is cell-based. The conditions noted are these: PBMC, 1 uM NECA, 24 hours. The procedure: Blood is drawn from healthy volunteers using sodium citrate as the anticoagulant (0.3% final concentration). After centrifugation of the blood over Histopaque-1077, PBMCs are collected from the Histopaque/plasma interface and washed twice in PBS (300 g for 10 mins at room temp). Cells are plated at 50,000 cells/well in 150 μl RPMI/10% FCS in 96-well cell culture plates that have been precoated with 1 ug/ml CD3 antibody. 50 μl diluted compound mix is added to the cells, to obtain final concentrations of 1 μg/ml CD28 antibody, 1 uM NECA and 0.003-10 μM adenosine receptor antagonist. Assay plates are incubated for 24 hours at 37° C. in a humidified incubator. Culture supernatant is tested for IL-2 levels using the human IL-2 Tissue Culture Kit (Meso Scale Discovery). Data for dose-response curves is calculated as % inhibition with 100% inhibition defined from no agonist control wells (+CD3/28-NECA)

The target of test [3] is human Adenosine A3 receptor (Homo sapiens (Human), UniProt P0DMS8). Description: Adenosine receptor TR-FRET binding assay (A3). To be noted: CHO cell membranes, 100 nM CA200645, Ki from IC50 by Cheng and Prusoff. The procedure: as §1, §2
Chain of human Adenosine A3 receptor (P0DMS8 whole entry): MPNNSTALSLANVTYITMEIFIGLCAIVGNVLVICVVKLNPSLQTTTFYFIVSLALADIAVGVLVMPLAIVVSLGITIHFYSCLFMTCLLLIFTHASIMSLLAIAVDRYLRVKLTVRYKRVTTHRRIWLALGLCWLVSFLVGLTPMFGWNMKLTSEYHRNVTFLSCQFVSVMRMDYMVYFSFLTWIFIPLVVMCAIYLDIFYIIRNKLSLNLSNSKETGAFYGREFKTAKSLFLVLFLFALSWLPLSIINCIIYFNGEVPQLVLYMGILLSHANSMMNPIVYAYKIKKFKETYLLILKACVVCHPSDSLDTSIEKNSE
Test [4] relates to pCREB in CD8+ T cells in human whole blood. Description: Measurement of pCREB in CD8+ T cells in human whole blood. In kind it is cell-based. The conditions noted are these: T-cell, 3 μM NECA, rolipram, FACS. The protocol: Heparinised human whole blood was pre-incubated at 37° C. with serial dilutions of A2a antagonists for 20 min. and the phosphodiesterase inhibitor rolipram to amplify the pCREB response. The adenosine receptor agonist NECA is then added at a final concentration of 3 μM and following a 60 min incubation the blood is fixed and red blood cells lysed. White blood cells are isolated, permeabilized and stained with directly conjugated fluorescent antibodies to phospho-CREB (Alexa Fluor 488) and CD8 (Alexa Fluor 647) and the level of phospho-CREB in CD8+ T cells is measured by FACS using a BD Accuri C6 Flow Cytometer.

The target in test [5] is human Adenosine A2a receptor (Homo sapiens (Human), UniProt P29274). Put plainly: Adenosine receptor TR-FRET binding assay (A2a). The conditions noted are these: CHO cell membranes, 100 nM CA200645, Ki from IC50 by Cheng and Prusoff. The procedure:
as §1, §2

Test [6] concerns the target human Adenosine A1 receptor (Homo sapiens (Human), UniProt P30542). Description: Adenosine receptor TR-FRET binding assay (A1). The conditions noted are these: CHO cell membranes, 100 nM CA200645, Ki from IC50 by Cheng and Prusoff. The procedure: as §1, §2

Chain of human Adenosine A1 receptor (P30542 whole entry): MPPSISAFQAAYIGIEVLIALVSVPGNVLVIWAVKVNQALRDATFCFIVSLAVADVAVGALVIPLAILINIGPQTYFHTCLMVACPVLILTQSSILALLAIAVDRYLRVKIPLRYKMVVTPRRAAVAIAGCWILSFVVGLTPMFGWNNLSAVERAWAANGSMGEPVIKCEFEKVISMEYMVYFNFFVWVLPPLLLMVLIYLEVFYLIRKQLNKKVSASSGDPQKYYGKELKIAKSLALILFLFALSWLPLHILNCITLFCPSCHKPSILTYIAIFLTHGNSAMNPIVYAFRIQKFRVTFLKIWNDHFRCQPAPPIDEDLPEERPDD
Chain of human Adenosine A2a receptor (P29274 whole entry): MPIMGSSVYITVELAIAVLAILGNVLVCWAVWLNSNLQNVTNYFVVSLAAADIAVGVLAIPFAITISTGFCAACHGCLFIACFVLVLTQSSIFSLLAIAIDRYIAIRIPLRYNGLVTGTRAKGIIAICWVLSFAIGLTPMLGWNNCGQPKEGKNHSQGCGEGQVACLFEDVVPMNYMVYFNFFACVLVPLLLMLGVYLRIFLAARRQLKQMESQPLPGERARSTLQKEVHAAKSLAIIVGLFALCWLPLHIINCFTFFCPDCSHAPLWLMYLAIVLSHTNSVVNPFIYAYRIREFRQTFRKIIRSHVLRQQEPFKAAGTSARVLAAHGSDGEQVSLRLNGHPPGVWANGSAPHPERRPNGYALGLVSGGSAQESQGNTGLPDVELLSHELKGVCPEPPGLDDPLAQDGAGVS

Broadly, the Ki is the dissociation constant of the complex between target and ligand, obtained from inhibition or displacement. What is called IC50 is the midpoint of a concentration-inhibition curve. Regarding `Cc1cc(-c2c(-c3cccc(C#N)c3)nc3ccc(C(=O)NCC(C)(C)O)nn23)cc(Cl)n1` [Example 2.2, 3-(2-Chloro-6-methyl-4-pyridyl)-2-(3-cyanophenyl)-N-(2-hydroxy-2-methyl-propyl)imidazo[1,2-b]pyridazine-6-carboxamide], the Ki in test [1] was 27 nM; in test [3], greater than 1000 nM; in test [5], 0.5 nM; in test [6], 363 nM. For the same compound, the IC50 in test [2] was 39 nM; in test [4] it was 496 nM.
Consider `Cc1cc(-c2c(-c3cccc(C#N)c3)nc3ccc(C(=O)N[C@@H](C)C(C)(C)O)nn23)cc(Cl)n1` [Example 2.9, 3-(2-Chloro-6-methyl-4-pyridyl)-2-(3-cyanophenyl)-N-[(1S)-2-hydroxy-1,2-dimethyl-propyl]imidazo[1,2-b]pyridazine-6-carboxamide], for which the Ki in test [1] is 20 nM; in test [3], greater than 1000 nM; in test [5] it was 0.2 nM; in test [6] it was 96 nM. Further, the IC50 was 5.3 nM in test [2] and 168 nM in test [4].
Turning to `Cc1cc(-c2c(-c3cccc(C#N)c3)nc3ccc(C(=O)N[C@@H](C)C(C)(C)O)nn23)cc(C)n1` [Example 3, 2-(3-Cyanophenyl)-3-(2,6-dimethyl-4-pyridyl)-N-[(1S)-2-hydroxy-1,2-dimethyl-propyl]imidazo[1,2-b]pyridazine-6-carboxamide], the Ki was 31 nM in test [1], greater than 1000 nM in test [3], 0.16 nM in test [5] and 71 nM in test [6]. Moreover, the IC50 in test [2] is 1.7 nM; in test [4] it was 61 nM.
As to `Cc1cc(-c2c(-c3cccc(C#N)c3)nc3ccc(C(=O)NCC(C)(C)O)nn23)cc(C)n1` [Example 2.1, 2-(3-Cyanophenyl)-3-(2,6-dimethyl-4-pyridyl)-N-(2-hydroxy-2-methyl-propyl)imidazo[1,2-b]pyridazine-6-carboxamide], the Ki in test [1] was 212 nM; in test [3] it was greater than 1000 nM; in test [5], 0.79 nM; in test [6], 667 nM. Moreover, the IC50 came to 13.8 nM in test [2] and 122 nM in test [4].
Regarding `Cc1cc(-c2c(-c3cccc(C#N)c3)nc3ccc(C(=O)NCC(C)(C)O)nn23)cc(C(F)(F)F)n1` [Example 2.3, 2-(3-Cyanophenyl)-N-(2-hydroxy-2-methyl-propyl)-3-[2-methyl-6-(trifluoromethyl)-4-pyridyl]imidazo[1,2-b]pyridazine-6-carboxamide], the Ki in test [1] is 18 nM; in test [3] it was greater than 1000 nM; in test [5], 0.46 nM; in test [6], 95 nM. The results for the half-maximal inhibitory concentration (IC50) in test [2] and in test [4] were 7.3 nM and 282 nM, respectively.
For `CC(=O)c1cc(-c2c(-c3cccc(C#N)c3)nc3ccc(C(=O)NCC(C)(C)O)nn23)cc(C)n1` [Example 2, 3-(2-Acetyl-6-methyl-4-pyridyl)-2-(3-cyanophenyl)-N-(2-hydroxy-2-methyl-propyl)imidazo[1,2-b]pyridazine-6-carboxamide], the Ki in test [1] was 1580 nM; in test [3], greater than 1000 nM; in test [5], 3.9 nM; in test [6] it was 1830 nM.
Regarding `Cc1cc(-c2c(-c3cccc(C#N)c3)nc3ccc(C(=O)N[C@H](C)C(C)(C)O)nn23)cc(C(F)(F)F)n1` [Example 2.7, 2-(3-Cyanophenyl)-N-[(1R)-2-hydroxy-1,2-dimethyl-propyl]-3-[2-methyl-6-(trifluoromethyl)-4-pyridyl]imidazo[1,2-b]pyridazine-6-carboxamide], the Ki in test [1] is 79 nM; in test [3], greater than 1000 nM; in test [5] it was 0.34 nM; in test [6], 324 nM. Besides, the IC50 in test [2] turned out to be 10.5 nM; in test [4] it was 499 nM.
Take `COc1cc(-c2c(-c3cccc(C#N)c3)nc3ccc(C(=O)N[C@@H](C)C(C)(C)O)nn23)cc(C)n1` [Example 2.8, 2-(3-Cyanophenyl)-N-[(1S)-2-hydroxy-1,2-dimethyl-propyl]-3-(2-methoxy-6-methyl-4-pyridyl)imidazo[1,2-b]pyridazine-6-carboxamide]: the Ki is 285 nM in test [1], greater than 1000 nM in test [3], 0.19 nM in test [5] and 243 nM in test [6]. Besides, the values for the IC50 in test [2] and in test [4] were 4.6 nM and 472 nM, respectively.
`Cc1cc(-c2c(-c3cccc(C#N)c3)nc3ccc(C(=O)N[C@@H](C)C(C)(C)O)nn23)cc(CO)n1` [Example 6, 2-(3-Cyanophenyl)-N-[(1S)-2-hydroxy-1,2-dimethyl-propyl]-3-[2-(hydroxymethyl)-6-methyl-4-pyridyl]imidazo[1,2-b]pyridazine-6-carboxamide]: the Ki in test [1] is 49 nM; in test [3] it was greater than 1000 nM; in test [5], 0.68 nM; in test [6], 120 nM.
Turning to `Cc1cc(-c2c(-c3cccc(C#N)c3)nc3ccc(C(=O)N[C@@H](C)C(C)(C)O)nn23)cc(C(F)F)n1` [Example 2.5, 2-(3-Cyanophenyl)-3-[2-(difluoromethyl)-6-methyl-4-pyridyl]-N-[(1S)-2-hydroxy-1,2-dimethyl-propyl]imidazo[1,2-b]pyridazine-6-carboxamide], the Ki in test [1] is 34 nM; in test [3], greater than 1000 nM; in test [5], 0.32 nM; in test [6], 78 nM. The 50% inhibitory concentration (IC50) in test [2] is 1.1 nM; in test [4] it was 105 nM.
On to `COc1cc(-c2c(-c3cccc(C#N)c3)nc3ccc(C(=O)NCC(C)(C)O)nn23)cc(C)n1` [Example 2.4, 2-(3-Cyanophenyl)-N-(2-hydroxy-2-methyl-propyl)-3-(2-methoxy-6-methyl-4-pyridyl)imidazo[1,2-b]pyridazine-6-carboxamide], for which the Ki in test [1] was 156 nM; in test [3], greater than 1000 nM; in test [5] it was 2.3 nM; in test [6] it was 286 nM. The results for the concentration for half-maximal inhibition (IC50) in test [2] and in test [4] were 13.5 nM and 2040 nM, respectively.
In the case of `Cc1cc(-c2c(-c3cccc(C#N)c3)nc3ccc(C(=O)N[C@@H](C)C(C)(C)O)nn23)cc(C(F)(F)F)n1` [Example 2.6, 2-(3-Cyanophenyl)-N-[(1S)-2-hydroxy-1,2-dimethyl-propyl]-3-[2-methyl-6-(trifluoromethyl)-4-pyridyl]imidazo[1,2-b]pyridazine-6-carboxamide], the Ki in test [1] is 18 nM; in test [3], greater than 1000 nM; in test [5] it was 0.17 nM; in test [6], 30 nM. Besides, the IC50 in test [2] is 0.6 nM; in test [4], 58 nM.
On to `CC(C)(O)CNC(=O)c1ccc2nc(-c3cccc(C#N)c3)c(Br)n2n1` [Example 1, 3-Bromo-2-(3-cyanophenyl)-N-(2-hydroxy-2-methyl-propyl)imidazo[1,2-b]pyridazine-6-carboxamide], for which the Ki in test [1] was 500 nM; in test [3], greater than 1000 nM; in test [5] it was 10.9 nM; in test [6] it was 4000 nM.
